Reference: ChEMBL document CHEMBL2074470, “P-glycoprotein-mediated transport of itraconazole across the blood-brain barrier” (Antimicrob Agents Chemother, 1998)

Target: ATP-dependent translocase ABCB1 (Mus musculus, UniProt P21447)
Assay: TP_TRANSPORTER: increase in brain concentration in mdr1a(-/-) mouse
Format: functional, organism-based
Conditions: in vivo

Sequence of ATP-dependent translocase ABCB1 (P21447 whole entry): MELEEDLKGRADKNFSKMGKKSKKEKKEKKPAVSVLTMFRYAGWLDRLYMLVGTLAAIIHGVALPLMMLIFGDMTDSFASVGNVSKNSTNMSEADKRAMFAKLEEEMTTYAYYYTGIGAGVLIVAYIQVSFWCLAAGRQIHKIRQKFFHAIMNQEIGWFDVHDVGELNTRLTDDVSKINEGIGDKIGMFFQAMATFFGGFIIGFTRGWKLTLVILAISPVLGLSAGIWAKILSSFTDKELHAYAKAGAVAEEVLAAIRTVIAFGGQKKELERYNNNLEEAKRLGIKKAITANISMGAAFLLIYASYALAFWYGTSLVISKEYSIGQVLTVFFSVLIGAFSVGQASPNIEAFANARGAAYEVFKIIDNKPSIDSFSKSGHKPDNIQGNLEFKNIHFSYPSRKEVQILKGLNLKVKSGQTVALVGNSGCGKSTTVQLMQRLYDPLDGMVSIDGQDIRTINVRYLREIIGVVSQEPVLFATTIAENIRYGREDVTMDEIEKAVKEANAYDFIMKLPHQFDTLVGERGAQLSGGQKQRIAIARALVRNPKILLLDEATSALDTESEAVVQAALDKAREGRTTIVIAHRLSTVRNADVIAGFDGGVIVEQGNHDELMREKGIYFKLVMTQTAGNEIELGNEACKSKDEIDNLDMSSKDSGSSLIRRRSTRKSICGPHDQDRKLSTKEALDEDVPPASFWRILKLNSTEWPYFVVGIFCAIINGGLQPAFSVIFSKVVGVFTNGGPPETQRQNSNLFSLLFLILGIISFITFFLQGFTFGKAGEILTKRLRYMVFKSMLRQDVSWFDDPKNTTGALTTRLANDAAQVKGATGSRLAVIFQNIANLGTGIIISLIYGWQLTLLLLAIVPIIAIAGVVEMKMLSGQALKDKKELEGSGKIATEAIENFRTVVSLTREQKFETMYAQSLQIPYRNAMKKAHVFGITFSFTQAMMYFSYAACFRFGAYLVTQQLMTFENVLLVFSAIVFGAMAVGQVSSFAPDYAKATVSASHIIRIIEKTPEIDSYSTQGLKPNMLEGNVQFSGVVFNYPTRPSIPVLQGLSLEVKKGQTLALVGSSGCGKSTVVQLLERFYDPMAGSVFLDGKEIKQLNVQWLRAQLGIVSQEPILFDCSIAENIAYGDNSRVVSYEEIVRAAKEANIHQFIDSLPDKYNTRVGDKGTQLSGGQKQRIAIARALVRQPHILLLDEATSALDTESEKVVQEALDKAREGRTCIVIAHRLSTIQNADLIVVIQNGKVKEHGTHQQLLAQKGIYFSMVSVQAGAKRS

CCC(C)n1ncn(-c2ccc(N3CCN(c4ccc(OCC5COC(Cn6cncn6)(c6ccc(Cl)cc6Cl)O5)cc4)CC3)cc2)c1=O (stereo unspecified) [ITRACONAZOLE]
Activity: substrate [+]
